Test system: healthy male subjects
Experiment: Safety: treatment-emergent adverse events, MAD study
Type: in vivo, human
Procedure: Safety was assessed by monitoring adverse events (AEs) throughout the studies that were coded using the standard Medical Dictionary for Regulatory Activities (MedDRA) dictionary (versions 19.0 [SAD part 1], 20.0 [SAD part 2] and 21.1 [MAD]). Other safety monitoring included 12‐lead electrocardiography recordings, measurement of vital signs (systolic and diastolic blood pressure and heart rate), physical and neurological (Hamilton depression rating scale[17] and Beck depression inventory‐II fastscreen[18] [SAD only], mental status examination, cranial nerves assessment and motor system examination, sensation to light touch, coordination/cerebellar function assessment, Romberg's test, gait test, daytime sleepiness assessment [SAD and MAD studies]) examinations, haematology, biochemistry and urinalysis. To minimise risks in the SAD and MAD studies, subjects were dosed sequentially using sentinels in each cohort (1 IP, 1 placebo) as per European Medicines Agency guidelines.[19] If the previous dose was well tolerated, with no safety concerns, dose escalation was decided by the Safety Review Group after reviewing safety and PK data from all available cohorts. Moreover, treatment with the highest dose in the SAD study was repeated (cohort 10) for regular ophthalmological evaluations (assessments available as supplementary information) to better characterise visual AEs observed in the SAD study. Regular ophthalmological assessments were also performed in the MAD study.

CC(C)C[C@H]1C(=O)O[C@H](Cc2ccc(N3CCOCC3)cc2)C(=O)N(C)[C@@H](CC(C)C)C(=O)O[C@H](C)C(=O)N(C)[C@@H](CC(C)C)C(=O)O[C@H](Cc2ccc(N3CCOCC3)cc2)C(=O)N(C)[C@@H](CC(C)C)C(=O)O[C@H](C)C(=O)N1C [emodepside]
5 (83.3) n (%): Any TEAE (LSF 5 mg OD n = 6)
2 (33.3) n (%): TEAE: Gastrointestinal disorders (LSF 5 mg OD n = 6) | TEAE: Musculoskeletal and connective tissue disorders (LSF 5 mg OD n = 6) | TEAE: Nervous system disorders (LSF 5 mg OD n = 6) | TEAE: Psychiatric disorders (LSF 5 mg OD n = 6) | TEAE: Musculoskeletal and connective tissue disorders (LSF 10 mg OD n = 6)
4 (66.7) n (%): TEAE: Infections and infestations (LSF 5 mg OD n = 6) | TEAE: Infections and infestations (LSF 10 mg OD n = 6)
0 n (%): TEAE: Immune system disorders (LSF 5 mg OD n = 6) | TEAE: Injury, poisoning and procedural complications (LSF 5 mg OD n = 6) | TEAE: Investigations (LSF 5 mg OD n = 6) | TEAE: Metabolism and nutrition disorders (LSF 5 mg OD n = 6) | TEAE: Surgical and medicinal procedures (LSF 5 mg OD n = 6) | TEAE: Gastrointestinal disorders (LSF 10 mg BID n = 6) | TEAE: Metabolism and nutrition disorders (LSF 10 mg BID n = 6) | TEAE: Nervous system disorders (LSF 10 mg BID n = 6) | TEAE: Psychiatric disorders (LSF 10 mg BID n = 6) | TEAE: Respiratory, thoracic and mediastinal disorders (LSF 10 mg BID n = 6) | TEAE: Skin and subcutaneous tissue disorders (LSF 10 mg BID n = 6) | TEAE: Surgical and medicinal procedures (LSF 10 mg BID n = 6) | TEAE: Gastrointestinal disorders (LSF 10 mg OD n = 6) | TEAE: Immune system disorders (LSF 10 mg OD n = 6) | TEAE: Injury, poisoning and procedural complications (LSF 10 mg OD n = 6) | TEAE: Investigations (LSF 10 mg OD n = 6) | TEAE: Nervous system disorders (LSF 10 mg OD n = 6) | TEAE: Respiratory, thoracic and mediastinal disorders (LSF 10 mg OD n = 6)
6 (100) n (%): Any TEAE (LSF 10 mg BID n = 6)
1 (16.7) n (%): TEAE: General disorders and administration site disorders (LSF 5 mg OD n = 6) | TEAE: Respiratory, thoracic and mediastinal disorders (LSF 5 mg OD n = 6) | TEAE: Skin and subcutaneous tissue disorders (LSF 5 mg OD n = 6) | TEAE: General disorders and administration site disorders (LSF 10 mg BID n = 6) | TEAE: Immune system disorders (LSF 10 mg BID n = 6) | TEAE: Injury, poisoning and procedural complications (LSF 10 mg BID n = 6) | TEAE: Investigations (LSF 10 mg BID n = 6) | TEAE: Musculoskeletal and connective tissue disorders (LSF 10 mg BID n = 6) | TEAE: Eye disorders (LSF 10 mg OD n = 6) | TEAE: General disorders and administration site disorders (LSF 10 mg OD n = 6) | TEAE: Metabolism and nutrition disorders (LSF 10 mg OD n = 6) | TEAE: Psychiatric disorders (LSF 10 mg OD n = 6) | TEAE: Skin and subcutaneous tissue disorders (LSF 10 mg OD n = 6) | TEAE: Surgical and medicinal procedures (LSF 10 mg OD n = 6)
3 (50.0) n (%): TEAE: Eye disorders (LSF 5 mg OD n = 6) | TEAE: Eye disorders (LSF 10 mg BID n = 6)
6 (100.0) n (%): Any TEAE (LSF 10 mg OD n = 6)

From paper PMC8518114, “Safety, tolerability and pharmacokinetics of emodepside, a potential novel treatment for onchocerciasis (river blindness), in healthy male subjects” (British Journal of Clinical Pharmacology, 2021)
